The text below walks through data of patent US20260256753A1, “USE OF AN OREXIN 2 RECEPTOR AGONIST FOR IMPROVING RESPIRATORY FUNCTION DURING SLEEP” (TAKEDA PHARMACEUTICAL COMPANY LIMITED, priority 2023, published 2026).

Series [1] concerns diaphragm. The series can be described thus: EMG recording of the diaphragm in anesthetized rats. The settings on record: 10 min after administration, versus vehicle, FIG. 4. In kind it is in vivo, rat. As to the method:
Rats were anaesthetized with isoflurane (induction: 2%, maintenance: 1.5%). Anesthetic depth was assessed by the reflex responses to paw pinches. The tail vein was cannulated for intravenous drug administration. Rats were laid on disposable body warmers to prevent decrease in body temperature. The diaphragm was exposed, then two needle electrodes were implanted into costal diaphragm to monitor diaphragm EMG. After 10 min of baseline recording, vehicle (0.1% [w/v] Polysorbate 80 and 20% [w/v] Captisol solution) or Compound C was administered intravenously, and then EMG was recorded for 10 min. EMG was amplified using Bio amp system (ML132, AD Instruments), high-pass filtered (10 Hz), digitized, and recorded using PowerLab software (AD Instruments), and then rectified and integrated with a time constant decay (100 ms) using LabChart software (AD Instruments). Threshold levels for bursts were set using LabChart software (AD Instruments). Bursts were then automatically detected, and burst frequency was measured. Mean values in burst frequency during 2 min before vehicle or Compound C administration were used as control values, and those during 10 min after vehicle or Compound C administration were used to calculate percent of control values.

Series [2] has as its system rats. Put plainly: Arousal effects after oral administration in rats. In kind it is in vivo, rat. The settings on record: oral administration at 10 mg/kg or more.
The subject of series [3] is patients with obstructive sleep apnea. Put plainly: Phase 1b crossover study of overnight intravenous infusion in obstructive sleep apnea: safety and tolerability. The series is classed as in vivo, human. The settings on record: for placebo adjusted LS mean change in DBP / placebo adjusted LS mean change in SBP: at predose. The protocol: A phase 1b, randomized, double-blind, placebo-controlled, 3-period crossover study was conducted to evaluate the safety, tolerability, pharmacodynamic, and pharmacokinetic effects of overnight intravenous COMPOUND A in patients with obstructive sleep apnea (OSA). This study was planned to further evaluate COMPOUND A intravenous administration (IV) in adults with OSA, hypothesizing that nonwake-promoting exposures of COMPOUND A would increase genioglossal muscle tone and increase airway patency via the increasing activity of hypoglossal motoneurons. The main goal of this study was to evaluate the mechanistic potential of OX2R agonism for treatment of OSA using COMPOUND A IV infusion to determine appropriate use in future trials with an oral OX2R agonist.
Participants were male or female, aged 18 to 75 years inclusive, with OSA diagnosed according to the International Classification of Sleep Disorders-3 (ICSD-3) criteria and an apnea hypopnea index (AHI) of 12 to 50 events/hour of sleep. The study consisted of a screening period, 3 treatment periods separated by 2 washout periods, and a follow-up period. A total of 13 participants were enrolled and randomized, of which 12 (92.3%) participants completed all planned doses of study drug and the study.
Eligible participants were randomly assigned (in a double-blinded manner) to 1 of 6 treatment sequences. In each treatment period, participants underwent 3 UACI assessments, a 10-minute evaluation that tested the key biological mechanism that causes OSA (as described by Osman, A. M., et al., 2019, Sleep, 42 (7), 1-10), followed by an overnight polysomnography (PSG). After the first baseline UACI assessment (U1), an IV infusion regimen of COMPOUND A or placebo was administered over approximately 10 hours to achieve specific plasma concentrations to evaluate the effect of COMPOUND A on the UACI and PSG metrics. Target plasma concentrations for the low-dose COMPOUND A IV regimen were 10 ng/mL for the second UACI (U2), 30 ng/ml for the third UACI (U3), and 10 ng/ml for the overnight PSG. Target plasma concentrations for the high-dose COMPOUND A IV regimen were 30 ng/mL for the U2, 90 ng/mL for the U3, and 30 ng/ml for the overnight PSG.
To achieve the target exposures for the UACI assessments (U2 and U3), there was a 20-minute loading period, followed by a 15-minute maintenance period for each. The overnight maintenance dose (approximately 490 minutes) covered the duration of a standard overnight PSG (approximately 8 hours). Doses were selected to cover the potential pharmacologically active concentration range for upper airway collapsibility. The concentration of COMPOUND A in solution was such that participants received the same volume of fluid in the low-dose COMPOUND A regimen, the high-dose COMPOUND A regimen, and placebo, allowing the study to be double-blinded and ensuring all participants were infused with the same volume of fluid.
On Day 1 of each treatment period, participants checked in approximately 3 hours prior to the scheduled dosing time. The procedure started in the evening to reduce the confounding factors of endogenous OX levels on assessments. Start time was adjusted based on the patient's usual bedtime. Following a physical examination, urine drug screen, and alcohol breathalyzer test, participants were fitted with an IV catheter for placebo/COMPOUND A infusion, electroencephalogram (EEG) electrodes to monitor wakefulness, choanal and epiglottic pressure sensors, and a nasal mask and pneumotachograph to measure airflow (Osman, et al. 2019).
Following the baseline UACI measurements, IV infusion of placebo or COMPOUND A began. COMPOUND A was tested at 2 concentrations in a stepwise manner, consisting of a 20 minute loading period followed by a 15 minute maintenance period per step. The UACI was tested at each concentration during the maintenance period. […]

Series [4] concerns the target T1, OX2R (Homo sapiens, UniProt O43614).
T1 sequence (O43614 1-444): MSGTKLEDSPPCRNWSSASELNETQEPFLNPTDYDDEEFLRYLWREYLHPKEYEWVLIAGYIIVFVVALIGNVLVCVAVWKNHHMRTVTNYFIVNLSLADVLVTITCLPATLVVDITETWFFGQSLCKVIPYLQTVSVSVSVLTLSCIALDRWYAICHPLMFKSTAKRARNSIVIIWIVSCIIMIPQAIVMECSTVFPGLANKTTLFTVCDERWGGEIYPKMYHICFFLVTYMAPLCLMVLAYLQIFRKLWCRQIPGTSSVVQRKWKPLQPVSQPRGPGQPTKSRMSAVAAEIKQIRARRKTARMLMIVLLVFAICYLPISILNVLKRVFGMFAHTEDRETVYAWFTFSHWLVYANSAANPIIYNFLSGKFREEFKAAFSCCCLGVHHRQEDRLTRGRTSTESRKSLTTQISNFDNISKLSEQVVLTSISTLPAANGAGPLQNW
To be noted: OX2R-expressed recombinant cells; cited from earlier work.

SMILES strings stand for the structures.

Take `CC(C)(O)C(=O)N1CC(F)(F)[C@H](NS(C)(=O)=O)[C@@H]1Cc1cccc(-c2cc(F)cc(F)c2)c1F` [Compound C, N-{(2S,3R)-4,4-difluoro-1-(2-hydroxy-2-methylpropanoyl)-2-[(2,3′,5′-trifluoro[1,1′-biphenyl]-3-yl)methyl]pyrrolidin-3-yl}methanesulfonamide]: the “burst frequency of the diaphragm” value in series [1] (1 mg/kg intravenous) and in series [1] (3 mg/kg intravenous) was “significantly increased burst frequency” throughout. Moreover, the arousal effects entry in series [2] is “potent arousal effects”.

As to `COC(=O)N1CCC[C@H](NS(C)(=O)=O)[C@@H]1CO[C@H]1CC[C@@H](c2ccccc2)CC1` (relative stereo) [Compound A, methyl(2R,3S)-3-((methylsulfonyl)amino)-2-(((cis-4-phenylcyclohexyl)oxy)methyl) piperidine-1-carboxylate], in series [3] (all treatment periods (low-dose, high-dose, placebo), 13 participants), the “participants who experienced drug-related TEAEs” value is reported as 23.1%. Further, the “number of drug-related TEAEs” value in series [3] (all treatment periods (low-dose, high-dose, placebo), all mild) is listed as 4. For the same molecule, the “deaths or serious TEAEs” value in series [3] (during the study) is given as “No deaths or serious TEAEs”. Besides, in series [3] (high dose regimen), the “drug related TEAEs” value is “no drug related TEAEs”, the “placebo adjusted LS mean change in DBP” value was found to be 1.84 mmHg and the “placebo adjusted LS mean change in SBP” value is 9.01 mmHg. Further, in series [3] (low dose regimen), the “consequence of TEAE of blood pressure increased” value is “led to study drug discontinuation”, the “placebo adjusted LS mean change in DBP” value stood at 0.29 mmHg and the “placebo adjusted LS mean change in SBP” value is given as 2.44 mmHg. The “dose related trend of most frequent TEAE (headache)” value in series [3] (low versus high dose regimen) is “no dose related trend was observed”. Further, in series [3] (low-dose and high-dose IV regimens, adult participants with OSA), the tolerability result is reported as “generally well tolerated with no safety concerns”. For the same molecule, in series [3] (low-dose regimen), the “drug-related TEAE of blood pressure increased (number)” value turned out to be 1 and the “drug-related TEAE of myalgia (number)” value was 1. In addition, the “drug-related TEAEs of headache (number)” value in series [3] (low-dose regimen and placebo together) is 2. In addition, the “intensity of TEAEs” value in series [3] (whole study, moderate headache on low dose regimen, not related to study drug) is listed as “mild in intensity except for 1 moderate TEAE of headache”. In series [4], the calcium mobilization result is given as “increase calcium mobilization”.
